# Reference: US10912817B2, “Prelyophilized, lyophilized and reconstituted formulations comprising TAT-NR2B9C with d-amino acids, histidine and trehalose” (NoNO Inc., priority 2012, dated 2021)
# No end group written: not given here.
# What was measured:
# Format in all cases: physicochemical
# [1] = 90 mg/mL NA-1 lyophile accelerated stability (small scale 3); conditions: histidine buffer concentrations of 50 and 75 mM; further tests; shortened resuspension times
# Procedure: A small batch of NA-1 drug product was lyophilized to evaluate solid state stability after 1 week storage at 25° C. and 60° C. Two 90 mg/mL NA-1 formulations were compounded (buffer and buffer with trehalose). Samples were evaluated for appearance, reconstitution, water content and purity by HPLC (MSA method) at t=0 and t=1 week.
# Vials were placed on stability at 25° C. and 60° C. and tested after 1 week of storage.
# [2] = Solubility study of NA-1 (visual analysis); conditions: pH 6.5, 35, 50, 75 and 100 mg/mL, t=0 and t=24 hours
# Procedure: Due to the relatively low Tg temperatures that would likely require a longer lyophilization cycle to dry, we looked at a wider range of standard bulking agents and looked to reduce the fill volume into the container closure system so that there would be a reduced volume of liquid to lyophilize. […] Samples were visually analyzed at 35, 50, 75 and 100 mg/mL. All solutions were clear at t=0 and t=24 hours. […] A wide range of quantities may be required in a vial, but 270 mg would provide a […] dose for a 100 kg patient. Assuming the target reconstitution concentration for patient administration is still 20 mg/mL (but can be from 1 mg/ml to 100 mg/ml), then a 20-mL lyophilization vial containing 270 mg of NA-1 can be used with a reconstitution volume of 13.5 mL. Therefore, optimal volumes of liquid for lyophilization of NA-1 in the vial would be between 2.5 mL and 10 mL.
# [3] = Solid state stability of lyophilized 270 mg NA-1 in 20 mM histidine pH 6.5 and 120 mM trehalose; conditions: same lyophile; at −20° C.
sequence,measurement,setting,value
YGRKKRRQRRRKLSSIESDV [NA-1],stability of NA-1,[1],good stability
same,solubility (visual analysis of solutions),[2]; NA-1 in Histidine+Trehalose,clear
same,solubility (visual analysis of solutions),[2]; NA-1 in Histidine,clear
same,stability of the formulation,[3],stable
